US8252895B2, “Cyclic peptide compounds” (Astellas Pharma Inc., priority 2005, dated 2012)
Square brackets hold non-standard residues; d marks the D form. Peptide text beside a SMILES is read from it. * marks the point of attachment. ξ: configuration not given here. MeBmt = C/C=C/C[C@@H](C)[C@@H](O)[C@H](NC)C(=O)O; NMeIle(3ξ) = CCC(C)[C@H](NC)C(=O)O; NMeThr(3ξ) = CN[C@H](C(=O)O)C(C)O; NMePhg = CN[C@H](C(=O)O)c1ccccc1; NMeT = CN[C@H](C(=O)O)[C@@H](C)O; NMeL = CN[C@@H](CC(C)C)C(=O)O; dNMeAbu = CC[C@@H](NC)C(=O)O; NMeV = CN[C@H](C(=O)O)C(C)C; dNMeS = CN[C@H](CO)C(=O)O; dNMeA = CN[C@H](C)C(=O)O; Sar = CNCC(=O)O; tBu = CC(C)(C)*

Experiments:
[1] = molecular target: HCV replicon; type: cell-based, hepatitis C virus; conditions: HCV replicon cells, luciferase activity two days after addition of compound, 50% of control (DMSO only)
Procedure: It is thought that the replication mechanism of the subgenomic HCV RNA in these cell lines is extremely similar to the replication of full length HCV RNA genome in hepatic cells infected with HCV.
The inhibitory activity of the test compounds against the replication of HCV replicon was evaluated by quantified the activity of luciferase, a reporter gene product encoded in the replicon system reported by Yokota et al., EMBO 4: 602-608 (2003). The enzyme assay was carried out according to the technical manual of the Steady-Glo® luciferase assay system (Promega). The replicon assay was carried out with the modified method reported by Lohmann et al., Science 285: 110 (1999). The details are described in the following.
6×10^3 HCV replicon cells in D-MEM medium containing 5% fetal bovine serum were seeded in each well of a 96-well microtiter plate (Corning Inc.). After the cells were incubated at 37° C. for 16 hours in 5% CO2, the test compound was added.
After cultivation for two more days, the culture medium was removed and 25 μl of Glo Lysis buffer was added to each well and incubated for 5 minutes. Allowing lysis to occur, 25 μl of Steady-Glo® assay reagent was added to each well. After incubation for 5 minutes, the luminescence was measured with a luminometer, Mithras LB940 (BERTHOLD TECHNOLOGIES GmbH & Co.KG) following the manufacturer's instructions.
The luciferase activities in replicon cells treated at each concentrations of the compound were employed for the calculation of EC50 value of the each compound, which gave the compound concentration indicating 50% enzyme activity level to the control (no drug group, containing only DMSO).

[2] = test system: Human Immunodeficiency Virus Type 1 (HIV-1); conditions: M. Thali et al., Nature 372, 363-365 (1994); cited from earlier work
[3] = test system: HCV; conditions: K. Inoue et al., 6th International Symposium on Hepatitis C and Related Virus (2000); cited from earlier work

Q: For C/C=C/C[C@@H](C)[C@@H](O)[C@H]1C(=O)N[C@@H]([C@@H](C)O)C(=O)N(C)[C@H](COC)C(=O)N(C)[C@@H]([C@@H](C)OC)C(=O)N[C@@H](CC(C)C)C(=O)N(C)[C@@H](CC(C)C)C(=O)N[C@@H](C)C(=O)N[C@H](C)C(=O)N(C)[C@@H](CC(C)C)C(=O)N[C@@H](CC(C)C)C(=O)N(C)[C@@H](C(C)C)C(=O)N1C [Example 9] (cyclo(A[dA][NMeL]L[NMeV][MeBmt]T[dNMeS](Me)[NMeT](Me)L[NMeL])), which “HCV replicon replication inhibitory activity: EC50” value [1] is on record?
A: Its value is less than 0.5 µg/mL.

Q: For C/C=C/C[C@@H](C)[C@@H](O)[C@H]1C(=O)N[C@@H]([C@@H](C)O)C(=O)N(C)[C@H](C)C(=O)N(C)[C@@H]([C@@H](C)OC)C(=O)N[C@@H](CC(C)C)C(=O)N(C)[C@@H](CC(C)C)C(=O)N[C@@H](C)C(=O)N[C@H](C)C(=O)N(C)[C@@H](CC(C)C)C(=O)N[C@@H](CC(C)C)C(=O)N(C)[C@@H](C(C)C)C(=O)N1C [Example 32] (cyclo(A[dA][NMeL]L[NMeV][MeBmt]T[dNMeA][NMeT](Me)L[NMeL])), which “HCV replicon replication inhibitory activity: EC50” value [1] is on record?
A: Its value is less than 0.5 µg/mL.

Q: With C/C=C/C[C@@H](C)[C@@H](O)[C@H]1C(=O)N[C@@H]([C@@H](C)O)C(=O)N(C)[C@H](C)C(=O)N(C)[C@@H](C(C)O)C(=O)N[C@@H](CC(C)C)C(=O)N(C)[C@@H](CC(C)C)C(=O)N[C@@H](C)C(=O)N[C@H](C)C(=O)N(C)[C@@H](CC(C)C)C(=O)N[C@@H](CC(C)C)C(=O)N(C)[C@@H](C(C)C)C(=O)N1C (stereo partly drawn) [Example 12, (3R,6S,9S,12S,15S,18S,21R,24S,27S,30S,33S)-6-[(1R)-1-hydroxyethyl]-33-(1-hydroxyethyl)-9-[(1R,2R,4E)-1-hydroxy-2-methyl-4-hexen-1-yl]-15,18,27,30-tetraisobutyl-12-isopropyl-1,3,4,10,13,19,21,24,28-nonamethyl-1,4,7,10,13,16,19,22,25,28,31-undecaazacyclotritriacontane-2,5,8,11,14,17,20,23,26,29,32-undecone] (cyclo(A[dA][NMeL]L[NMeV][MeBmt]T[dNMeA][NMeThr(3ξ)]L[NMeL])) as the molecule, how does the “HCV replicon replication inhibitory activity: EC50” value [1] read?
A: The value was less than 0.5 µg/mL.

Q: With C/C=C/C[C@@H](C)[C@@H](O)[C@H]1C(=O)N[C@@H]([C@@H](C)O)C(=O)N(C)[C@H](CC)C(=O)N(C)[C@@H]([C@@H](C)OC)C(=O)N[C@@H](CC(C)C)C(=O)N(C)[C@@H](CC(C)C)C(=O)N[C@@H](C)C(=O)N[C@H](C)C(=O)N(C)[C@@H](CC(C)C)C(=O)N[C@@H](CC(C)C)C(=O)N(C)[C@@H](C(C)C)C(=O)N1C [Example 16] (cyclo(A[dA][NMeL]L[NMeV][MeBmt]T[dNMeAbu][NMeT](Me)L[NMeL])) as the molecule, how does the “HCV replicon replication inhibitory activity: EC50” value [1] read?
A: The value was less than 0.5 µg/mL.

Q: Which results are given for Cyclosporin A?
A: anti-HIV activity [2]: anti-HIV activity; anti-HCV activity [3]: anti-HCV activity

Q: Which “HCV replicon replication inhibitory activity: EC50” value [1] does the source give for C/C=C/C[C@@H](C)[C@@H](O)[C@H]1C(=O)N[C@@H]([C@@H](C)O)C(=O)N(C)[C@H](C)C(=O)N(C)[C@@H](c2ccccc2)C(=O)N[C@@H](CC(C)C)C(=O)N(C)[C@@H](CC(C)C)C(=O)N[C@@H](C)C(=O)N[C@H](C)C(=O)N(C)[C@@H](CC(C)C)C(=O)N[C@@H](CC(C)C)C(=O)N(C)[C@@H](C(C)C)C(=O)N1C [Example 15] (cyclo(A[dA][NMeL]L[NMeV][MeBmt]T[dNMeA][NMePhg]L[NMeL])) here?
A: The value was less than 0.5 µg/mL.

Q: Which “HCV replicon replication inhibitory activity: EC50” value [1] does the source give for C/C=C/C[C@@H](C)[C@@H](O)[C@H]1C(=O)N[C@@H]([C@@H](C)O)C(=O)N(C)CC(=O)N(C)[C@@H](C(C)OC(C)(C)C)C(=O)N[C@@H](CC(C)C)C(=O)N(C)[C@@H](CC(C)C)C(=O)N[C@@H](C)C(=O)N[C@H](C)C(=O)N(C)[C@@H](CC(C)C)C(=O)N[C@@H](CC(C)C)C(=O)N(C)[C@@H](C(C)C)C(=O)N1C (stereo partly drawn) [Example 52, (3S,6S,9S,12R,15S,18S,21S,24S,30S,33S)-24-(1-tert-butoxyethyl)-30-[(1R)-1-hydroxyethyl]-33-[(1R,2R,4E)-1-hydroxy-2-methyl-4-hexen-1-yl]-6,9,18,21-tetraisobutyl-3-isopropyl-1,4,10,12,15,19,25,28-octamethyl-1,4,7,10,13,16,19,22,25,28,31-undecaazacyclotritriacontane-2,5,8,11,14,17,20,23,26,29,32-undecone] (cyclo(A[dA][NMeL]L[NMeV][MeBmt]T[Sar][NMeThr(3ξ)](tBu)L[NMeL])) here?
A: The value was less than 0.5 µg/mL.

Q: For C/C=C/C[C@@H](C)[C@@H](O)[C@H]1C(=O)N[C@@H]([C@@H](C)O)C(=O)N(C)[C@H](C)C(=O)N(C)[C@@H](C(C)OC(C)(C)C)C(=O)N[C@@H](CC(C)C)C(=O)N(C)[C@@H](CC(C)C)C(=O)N[C@@H](C)C(=O)N[C@H](C)C(=O)N(C)[C@@H](CC(C)C)C(=O)N[C@@H](CC(C)C)C(=O)N(C)[C@@H](C(C)C)C(=O)N1C (stereo partly drawn) [Example 25, (3R,6S,9S,12S,15S,18S,21R,24S,27S,30S,33S)-33-(1-tert-butoxyethyl)-6-[(1R)-1-hydroxyethyl]-9-[(1R,2R,4E)-1-hydroxy-2-methyl-4-hexen-1-yl]-15,18,27,30-tetraisobutyl-12-isopropyl-1,3,4,10,13,19,21,24,28-nonamethyl-1,4,7,10,13,16,19,22,25,28,31-undecaazacyclotritriacontane-2,5,8,11,14,17,20,23,26,29,32-undecone] (cyclo(A[dA][NMeL]L[NMeV][MeBmt]T[dNMeA][NMeThr(3ξ)](tBu)L[NMeL])), which “HCV replicon replication inhibitory activity: EC50” value [1] is on record?
A: Its value is less than 0.5 µg/mL.

Q: With C/C=C/C[C@@H](C)[C@@H](O)[C@H]1C(=O)N[C@@H]([C@@H](C)O)C(=O)N(C)[C@H](C)C(=O)N(C)[C@@H](C(C)CC)C(=O)N[C@@H](CC(C)C)C(=O)N(C)[C@@H](CC(C)C)C(=O)N[C@@H](C)C(=O)N[C@H](C)C(=O)N(C)[C@@H](CC(C)C)C(=O)N[C@@H](CC(C)C)C(=O)N(C)[C@@H](C(C)C)C(=O)N1C (stereo partly drawn) [Example 14, (3R,6S,9S,12S,15S,18S,21R,24S,27S,30S,33S)-33-sec-butyl-6-[(1R)-1-hydroxyethyl]-9-[(1R,2R,4E)-1-hydroxy-2-methyl-4-hexen-1-yl]-15,18,27,30-tetraisobutyl-12-isopropyl-1,3,4,10,13,19,21,24,28-nonamethyl-1,4,7,10,13,16,19,22,25,28,31-undecaazacyclotritriacontane-2,5,8,11,14,17,20,23,26,29,32-undecone] (cyclo(A[dA][NMeL]L[NMeV][MeBmt]T[dNMeA][NMeIle(3ξ)]L[NMeL])) as the molecule, how does the “HCV replicon replication inhibitory activity: EC50” value [1] read?
A: The value was less than 0.5 µg/mL.
